# In patent US5605929A, “Methods and compositions for inhibiting 5α-reductase activity” (priority 1995, dated 1997):
# Read-outs that look alike come from different tables or passages of the source.
# How the values were obtained:
# 5α-reductase = test: Catechin gallates in rat liver microsomes or cells expressing type 1 or type 2 5α-reductase; type: biochemical; conditions: for inhibitory activity: vs catechin gallate
# [1] = target: T1, 5α-Reductase of Rat Liver Microsomes (Rattus norvegicus, UniProt P24008); test: biochemical; conditions: for activation at 200 µM: 1 h, read-out: stimulation of [^3 H]4-MA binding
# T1 sequence (P24008 1-259): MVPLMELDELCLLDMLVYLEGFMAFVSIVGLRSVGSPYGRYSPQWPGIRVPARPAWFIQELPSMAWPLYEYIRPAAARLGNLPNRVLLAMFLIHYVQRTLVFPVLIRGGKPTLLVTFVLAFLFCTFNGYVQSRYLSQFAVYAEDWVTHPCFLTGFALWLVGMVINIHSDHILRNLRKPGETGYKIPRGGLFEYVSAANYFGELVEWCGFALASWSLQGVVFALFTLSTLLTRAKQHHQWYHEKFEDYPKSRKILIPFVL
# [2] = target: T1, 5α-Reductase of Rat Liver Microsomes; conditions: for stimulation or inhibition of [^3 H]4-MA binding: 40 μM
# hamster flank organ = test: Flank organ, castrated immature male hamsters, topical treatment; type: in vivo, Syrian golden hamster; conditions: for Pigmented macule Right (+T): T alone 49.6 ± 8.3; for Pigmented macule Left: Table 5, fatty acid 1 mg without T; for inhibition of T-induced growth of pigmented macule: hamster, in vivo
# Experimental: One to two weeks after castration, the hair on the lower back of each animal was clipped with an electric hair clipper and then shaved weekly to expose the flank organs. The animals were divided into 5 animals/treatment group. A treatment solution (5 μl) was applied topically to the right flank organ once a day using a Pipetteman and a polypropylene disposable tip. Unless specified the left flank organ was not treated. The treatment solution contained either (a) ethanol alone (vehicle and control), (b) an androgen (T or 5α-DHT), (c) a fatty acid, or (d) a combination of an androgen and a fatty acid. The flank organ was wiped with an alcohol pad to remove residual compound before each treatment. […] The flank organs, both the treated and untreated sides, were evaluated with methods to be described below to determine the effect of these treatments of the growth of the pigmented macules and the sebaceous glands. The body weight of each animal was recorded before and after treatment.
# The data are presented as mean ± standard deviation. […]
# microsomal 5α-reductase = target: T2, microsomal 5α-reductase (Rattus norvegicus, UniProt P24008); test: Enzymatic assay of microsomal 5α-reductase (testosterone to 5α-DHT); type: biochemical; conditions: prostate or liver microsomes
# T2 construct: from the livers of adult Sprague-Dawley female rats; from tissue; host or cells: liver microsomes of adult female Sprague-Dawley rats
# T2 sequence (P24008 1-259): T1 sequence (P24008 1-259)
# Experimental: Microsomes were prepared at 4° C. from a buffered 0.32M-sucrose homogenate of human liver and from the livers of adult Sprague-Dawley female rats by differential centrifugation as described previously (Liang et al., 1990), and were used in the assay of 5α-reductase activity. In some experiments, microsomes were solubilized with 0.1% polyoxyethylene ether W-1 as described previously (Liang et al., 1990), except for the substitution of polyoxyethylene ether W-1 for Lubrol-WX.
# [3] = target: T1, 5α-Reductase of Rat Liver Microsomes; test: [3H]4-MA binding assay, rat liver microsomes (tea catechins); conditions: concentrations up to 200 μM
# Experimental: Microsomes were prepared as described previously (Liang and Liao, 1992) from the liver of adult Sprague-Dawley female rats or Rat-1A cells expressing a specific type of human 5α-reductase. Each study was carried out in duplicate or triplicate which were usually within 10% of each other. Several studies were preformed to assure that the results shown are representative. The data presented was based on the rate of reaction.
# [^3 H]4-MA binding assay were described in detail previously (Liang and Liao, 1992; Liang et al., 1983). […] The reaction was started by the addition of 25 μl of microsomes (25 μg protein). After 30-60 min incubation at 0° C., the [^3 H]4-MA bound to microsomes was collected on a Whatman GF/F glass fiber, washed and radioactivity determined (Liang and Liao, 1992).
# [4] = read-out: % Inhibition of [^3 H]4-MA binding, Table 1, 10 μM
# [5] = read-out: % Inhibition of [^3 H]4-MA binding, Table 1, 40 μM
# [6] = read-out: % Inhibition of [^3 H]4-MA binding, Table 1, 200 μM
# [7] = read-out: % Inhibition of [^3 H]4-MA binding, Table 2, 5 μM
# [8] = read-out: % Inhibition of [^3 H]4-MA binding, Table 2, 10 μM
# [9] = read-out: % Inhibition of [^3 H]4-MA binding, Table 2, 40 μM
# [10] = read-out: % Inhibition of [^3 H]4-MA binding, Table 2, 200 μM
# [11] = Table 5, T 0.5 μg + fatty acid 1 mg
# [12] = Table 5, T 0.5 μg + fatty acid 1 mg, 21 days
# [13] = read-out: % Inhibition of [^3 H]4-MA binding
compound,measurement,setting,value
"NC(=O)c1cc(O)c(O)c(O)c1 [3,4,5-trihydroxybenzamide]",inhibitory activity,5α-reductase,not as active as catechin gallate
CC1=C(/C=C/C(C)=C/C=C/C(C)=C\C(=O)O)C(C)(C)CCC1 [13-cis-retinoic acid],activation at 200 µM,[1],58%
same,inhibitory activity in [^3 H]4-MA binding assay,[2],slightly stimulatory
same,stimulation or inhibition of [^3 H]4-MA binding,[2],no stimulation or inhibition
CC1=C(/C=C/C(C)=C/C=C/C(C)=C\CO)C(C)(C)CCC1 [13-cis-retinol],activation at 200 µM,[1],58%
same,inhibitory activity in [^3 H]4-MA binding assay,[2],slightly stimulatory
same,stimulation or inhibition of [^3 H]4-MA binding,[2],no stimulation or inhibition
Oc1cc(O)c2c(c1)OC(c1ccc(O)c(O)c1)C(O)C2 (stereo not drawn) [Catechin],inhibition,5α-reductase; 40 μM,less than 25%
"CC/C=C\C/C=C\C/C=C\C/C=C\C/C=C\C/C=C\CCC(=O)O [Docosahexaenoic acid, cis-4,7,10,13,16,19-docosahexaenoic acid]",IC50,[1],47 µM
same,inhibition at 10 µM,[1]; [4],< 10%
same,inhibition at 40 µM,[1]; [5],27 ± 1%
same,inhibition at 200 µM,[1]; [6],87 ± 6%
same,inhibition at 5 µM,[1]; [7],< 10%
same,inhibition at 10 µM,[1]; [8],18%
same,inhibition at 40 µM,[1]; [9],49%
same,inhibition at 200 µM,[1]; [10],86%
same,inhibitory activity in [^3 H]4-MA binding assay,[2],potent inhibitor
CCCCCCCC/C=C/CCCCCCCC(=O)O [Elaidic acid],p (significance of inhibition),hamster flank organ; [11],N.S.
same,Pigmented macule Right (+T),hamster flank organ; [12],47.0 ± 5.9 mm^2
same,Pigmented macule Left,hamster flank organ; 21 days,4.9 ± 1.1 mm^2
same,inhibition of T-induced growth of pigmented macule,hamster flank organ,inactive
same,inhibition in the enzymatic assay,microsomal 5α-reductase,as potent as their cis isomers
same,inhibition at 10 µM,[1]; [4],< 10%
same,inhibition at 40 µM,[1]; [5],< 10%
same,inhibition at 200 µM,[1]; [6],< 10%
same,inhibition at 10 µM,[1]; [8],< 10%
same,inhibition at 40 µM,[1]; [9],< 10%
same,inhibition at 200 µM,[1]; [10],< 10%
same,inhibitory activity in [^3 H]4-MA binding assay,[2],much less inhibitory than their cis isomers
CCCCCCCC/C=C\CCCCCCCCCCCC(=O)O [Erucic acid],Percent Inhibition,hamster flank organ; [12],29%
same,Pigmented macule Right (+T),hamster flank organ; [12],35.4 ± 4.6 mm^2
same,Pigmented macule Left,hamster flank organ; 21 days,4.6 ± 1.5 mm^2
same,inhibition of T-induced growth of pigmented macule,hamster flank organ,Weak inhibitions
same,IC50,[1],> 200 µM
same,inhibition at 40 µM,[1]; [5],< 10%
same,inhibition at 200 µM,[1]; [6],< 10%
same,inhibition at 10 µM,[1]; [8],< 10%
same,inhibition at 40 µM,[1]; [9],< 10%
same,inhibition at 200 µM,[1]; [10],< 10%
same,inhibitory activity in [^3 H]4-MA binding assay,[2],inactive
CCCCC/C=C/C/C=C/CCCCCCCC(=O)O [Linolelaidic acid],p (significance of inhibition),hamster flank organ; [11],N.S.
same,Pigmented macule Right (+T),hamster flank organ; [12],46.6 ± 8.7 mm^2
same,Pigmented macule Left,hamster flank organ; 21 days,4.1 ± 0.7 mm^2
same,inhibition of T-induced growth of pigmented macule,hamster flank organ,inactive
same,inhibition in the enzymatic assay,microsomal 5α-reductase,as potent as their cis isomers
same,inhibition at 40 µM,[1]; [5],< 10%
same,inhibition at 200 µM,[1]; [6],19 ± 5%
same,inhibition at 10 µM,[1]; [8],< 10%
same,inhibition at 40 µM,[1]; [9],< 10%
same,inhibition at 200 µM,[1]; [10],19%
same,inhibitory activity in [^3 H]4-MA binding assay,[2],much less inhibitory than their cis isomers
CCCCC/C=C\C/C=C\C/C=C\CCCCC(=O)OCC(O)CO (stereo not drawn) [Monoγ-Linolenin],inhibition at 5 µM,[1]; [7],< 10%
same,inhibition at 10 µM,[1]; [8],< 10%
same,inhibition at 40 µM,[1]; [9],35%
same,inhibition at 200 µM,[1]; [10],87%
same,IC50,[2],86 µM
CCCC/C=C\CCCCCCCC(=O)O [Myristoleic acid],inhibition at 5 µM,[1]; [13],< 10%
same,inhibition at 10 µM,[1]; [13],< 10%
same,inhibition at 40 µM,[1]; [13],25 ± 4%
same,inhibition at 200 µM,[1]; [13],43 ± 1%
same,% Inhibition of [^3 H]4-MA binding,"[2]; Table 2, 10 μM",NA (less than 10% inhibition were considered not active (NA))
CCCCCCCC/C=C\CCCCCCCCCCCCCC(=O)O [Nervonic acid],p (significance of inhibition),hamster flank organ; [11],N.S.
same,Pigmented macule Right (+T),hamster flank organ; [12],39.9 ± 5.4 mm^2
same,Pigmented macule Left,hamster flank organ; 21 days,4.0 ± 1.5 mm^2
same,inhibition of T-induced growth of pigmented macule,hamster flank organ,no significant inhibition
same,IC50,[1],> 200 µM
same,inhibition at 40 µM,[1]; [5],< 10%
same,inhibition at 200 µM,[1]; [6],< 10%
same,inhibition at 40 µM,[1]; [9],< 10%
same,inhibition at 200 µM,[1]; [10],< 10%
same,inhibitory activity in [^3 H]4-MA binding assay,[2],inactive
C=CCCCCCCCCC(=O)O [Undecylenic acid],p (significance of inhibition),hamster flank organ; [11],N.S.
same,Pigmented macule Right (+T),hamster flank organ; [12],41.7 ± 10.7 mm^2
same,Pigmented macule Left,hamster flank organ; 21 days,4.7 ± 1.2 mm^2
same,inhibition of T-induced growth of pigmented macule,hamster flank organ,no significant inhibition
same,inhibition at 10 µM,[1]; [13],< 10%
same,inhibition at 40 µM,[1]; [13],< 10%
same,inhibition at 200 µM,[1]; [13],13 ± 2%
same,inhibitory activity in [^3 H]4-MA binding assay,[2],inactive
same,% Inhibition of [^3 H]4-MA binding,"[2]; Table 2, 40 μM",NA (less than 10% inhibition were considered not active (NA))
"O=C(O)c1cc(O)c(O)c(O)c1 [gallic acid, reference compound]",inhibitory activity,[3],not active
same,inhibitory activity,5α-reductase,not as active as catechin gallate
COC(=O)c1cc(O)c(O)c(O)c1 [methyl gallate],inhibitory activity,5α-reductase,not as active as catechin gallate
CCCCCCCCOC(=O)c1cc(O)c(O)c(O)c1 [n-octyl gallate],inhibitory activity,5α-reductase,low inhibitory activity
CCCOC(=O)c1cc(O)c(O)c(O)c1 [n-propyl gallate],inhibitory activity,5α-reductase,not as active as catechin gallate
CCCCC[C@H](O)/C=C/[C@H]1C=CC(=O)[C@@H]1C/C=C\CCCC(=O)O [prostaglandin A2],inhibitory activity in [^3 H]4-MA binding assay,[2]; 0.2 mM,somewhat active
CCCCC[C@H](O)/C=C/C1=C(CCCCCCC(=O)O)C(=O)CC1 [prostaglandin B1],inhibitory activity in [^3 H]4-MA binding assay,[2]; 0.2 mM,somewhat active
CCCCC[C@H](O)/C=C/C1=C(C/C=C\CCCC(=O)O)C(=O)CC1 [prostaglandin B2],inhibitory activity in [^3 H]4-MA binding assay,[2]; 0.2 mM,somewhat active
CCCCC[C@H](O)/C=C/[C@H]1C(=O)C[C@H](O)[C@@H]1C/C=C\CCCC(=O)O [prostaglandin D2],inhibitory activity in [^3 H]4-MA binding assay,[2]; 0.2 mM,somewhat active
CCCCC[C@H](O)/C=C/[C@H]1[C@H](O)CC(=O)[C@@H]1CCCCCCC(=O)O [prostaglandin E1],inhibitory activity in [^3 H]4-MA binding assay,[2]; 0.2 mM,somewhat active
CCCCC[C@H](O)/C=C/[C@@H]1[C@@H](CCCCCCC(=O)O)[C@@H](O)C[C@H]1O [prostaglandin F1a],inhibitory activity in [^3 H]4-MA binding assay,[2]; 0.2 mM,somewhat active
Oc1cccc(O)c1O [pyrogallol],inhibitory activity,5α-reductase,not as active as catechin gallate
CC1=C(/C=C/C(C)=C/C=C/C(C)=C/C=O)C(C)(C)CCC1 [retinal],activation at 200 µM,[1],58%
same,stimulation or inhibition of [^3 H]4-MA binding,[2],no stimulation or inhibition
CC1=C(/C=C/C(C)=C/C=C/C(C)=C/C(=O)O)C(C)(C)CCC1 [retinoic acid],inhibitory activity in [^3 H]4-MA binding assay,[2],inactive
CC1=C(/C=C/C(C)=C/C=C/C(C)=C/CO)C(C)(C)CCC1 [retinol],inhibitory activity in [^3 H]4-MA binding assay,[2],slightly stimulatory
Phosphatidylcholine,inhibitory activity in [^3 H]4-MA binding assay,[2],slightly stimulatory
carotenes,inhibitory activity in [^3 H]4-MA binding assay,[2],inactive
di-γ-linolenin,IC50,[2],> 200 µM
same,% Inhibition of [^3 H]4-MA binding,"[2]; Table 2, 10 μM",NA (less than 10% inhibition were considered not active (NA))
same,% Inhibition of [^3 H]4-MA binding,"[2]; Table 2, 40 μM",NA (less than 10% inhibition were considered not active (NA))
same,% Inhibition of [^3 H]4-MA binding,"[2]; Table 2, 200 μM",NA (less than 10% inhibition were considered not active (NA))
heneicosene nitrile,IC50,[2],> 200 µM
methyl docosatetraenoate,IC50,[2],> 200 µM
phosphatidyl ethanolamine,inhibitory activity in [^3 H]4-MA binding assay,[2],slightly stimulatory
